From patent US20090118366A1, “ORGANIC COMPOUNDS” (Nabriva Therapeutics Forschungs GmbH, priority 2007, published 2009)

System: cryopreserved primary human hepatocytes
Test: Metabolic stability in cryopreserved primary human hepatocytes
Assay type: in vitro ADME
Conditions: 4 h incubation with human hepatocytes, compound concentration 5 μg/mL, 37° C., LC/MS
Procedure: The metabolic stability for compounds of the present invention was determined by using cryopreserved primary human hepatocytes. 1×10^6 cells/mL were incubated in the absence and the presence of 5 and 25 μg/mL of the test compounds at 37° C., 5% CO2 for 4 hours, To evaluate the in vitro degradation under assay conditions, a sample of each test compound was incubated also in the absence of hepatocytes. The incubation was stopped by freezing the reaction mixture. After ultrafiltration and washing of the filter with acetonitrile, the sample solution was analyzed for parent compound disappearance or metabolite appearance using LC/MS (ion trap). The metabolic stability value corresponds to the detected parent compound in % after incubation.

| Substance | parent compounds found (metabolic stability value) |
| --- | --- |
| 14-O-{[(1R, 2R, 5S)-5-Amino-2-hydroxy-cyclohexylsulfanyl]-acetyl}-mutilin hydrochloride+(1s, 2S, 5R) diastereomer hydrochloride [Example 2] | 66% |
| 14-O-{[(1R, 3S)-3-Amino-cyclohexylsulfanyl]-acetyl}-mutilin hydrochloride and the (1S, S3R) diastereomer hydrochloride thereof | 24% |
